From PMC10291556 (Journal of Medicinal Chemistry, 2023)
Like-named read-outs stand apart in the source and are kept apart here.

Legend:
HCT-116 = assay: MTT antiproliferative assay, 72 h; assay type: cell-based, human; settings: read-out: IC50 HCT-116
Method: (§1) Cells were treated with the tested compounds in a final volume of 200 μL/well. […] Calbiochem, Darmstadt, Germany) was added, and the cells were incubated for an additional 2–4 h. The medium was removed, and the insoluble formazan product was dissolved in 100 μL/well DMSO. The absorbance was read at 570 nm (vs 620 nm) using an Absorbance Reader (SUNRISE TECAN SCHOELLER). The read values were converted to the percentage of control. […] All experiments were made in triplicate.

A2780 = assay: MTT antiproliferative assay, 72 h; assay type: cell-based, human; settings: read-out: IC50 A2780
Method: as §1

HeLa = assay: MTT antiproliferative assay, 72 h; assay type: cell-based, human
Method: as §1

MCF-7 = assay: MTT antiproliferative assay, 72 h; assay type: cell-based, human; settings: read-out: IC50 MCF-7
Method: as §1

MDA-MB-231 = assay: MTT antiproliferative assay, 72 h; assay type: cell-based, human; settings: read-out: IC50 MDA-MB-231
Method: as §1

A2780cisR = assay: MTT antiproliferative assay, 72 h; assay type: cell-based, human; settings: read-out: IC50 A2780cisR
Method: as §1

[1] = system: peritoneal carcinomatosis; set-up: method as in PMID 20535526; settings: BD-IX rats; cited from earlier work
HeLa cells [2] = assay: Cellular accumulation of platinum (ICP-MS); assay type: cell-based, human
Method: Briefly, 3 × 10^6 cells were seeded in 100 mm culture dishes and grown overnight. The cells were exposed to the tested complexes at indicated concentrations for indicated periods. […] The pellets were digested using the microwave acid (HCl) digestion system (CEM Mars). The platinum quantity taken up by the cells was determined by inductively coupled plasma mass spectrometry (ICP–MS). All experiments were performed in triplicate.

[3] = system: DNA isolated from HeLa cells; assay: Pt associated with DNA isolated from treated HeLa cells; assay type: cell-based, human; settings: 1 µM compound, 6 h, mean ± SD
Excerpt: page 16: Table S1: […] concentration of tested compounds for 6 ha. […] Figure S19: A. Representative histograms obtained by flow cytometric analysis of calreticulin exposure in HeLa cells treated with indicated compounds. B. An example of gating DAPI negative population. Only DAPI-negative cells were taken for the evaluation.

[4] = system: HeLa cells / Thp-1/PMA macrophages; assay: Phagocytosis of treated HeLa cells by Thp-1/PMA macrophages; assay type: cell-based, human; settings: HeLa treated 24 h at 1× or 3× IC50,72h, co-incubated 2.5 h with Thp-1/PMA macrophages
Method: Figure 8 Hallmarks of ICD. (A) Extracellular ATP levels in HeLa cell supernatants. […] (B) Extracellular level of HMGB1. […] (C) Calreticulin exposure to the cell surface. […] The surface calreticulin exposure was determined in 4′,6-diamidino-2-phenylindole dihydrochloride (DAPI)-negative cell population. Relative fluorescence intensity was calculated as the median fluorescence of the population of treated cells/median fluorescence of untreated control cells. The data in panels A, B, and C are shown as a mean of 4–5 measurements ± SD. Statistical significance from untreated control was determined with the Student t-test (*p ≤ 0.05, **p ≤ 0.01, and ^#p ≤ 0.001). (D) Quantitative evaluation of phagocytosis of HeLa cells treated with the investigated compounds by human Thp-1/PMA macrophages (analyzed by flow cytometry). […] Error bars are the SEMs calculated from three independent experiments. The stars denote a significant difference from untreated control (*p ≤ 0.05, **p ≤ 0.01) as calculated by the […] Student t-test. […]
Human monocytic leukemia cells Thp-1 (obtained from American Type Culture Collection, ATCC) were differentiated into macrophages with phorbol 12-myristate 13-acetate (PMA, 100 nM) for 24 h. […] Phagocytosis was evaluated using flow cytometry (BD FACSVerse), and data were analyzed with FCS Express 7 (DeNovo software; Glendale, CA). […]

MRC-5 = assay: MTT assay in non-cancerous fibroblasts, 72 h; assay type: cell-based; settings: non-cancerous human fibroblasts, 72 h incubation, mean ± SD
Method: as §1, with “The absorbance was read at 570 nm (vs 620 nm) using an Absorbance Reader (SUNRISE TECAN SCHOELLER).” left out

HeLa cells [5] = assay: HMGB1 release (ELISA); assay type: cell-based, human; settings: 1×, 2×, 3× IC50, 20 h
Method: (B) Extracellular level of HMGB1. […] The data in panels A, B, and C are shown as a mean of 4–5 measurements ± SD. Statistical significance from untreated control was determined with the Student t-test (*p ≤ 0.05, **p ≤ 0.01, and ^#p ≤ 0.001).
HeLa cells were seeded in 24-well plates at a density of 10^4 cells/well and grown overnight. The medium was removed, and a fresh medium (DMEM, 1% BSA, no FBS) containing indicated concentrations of tested complexes was added (300 μL). Following a 20 h treatment, medium samples were withdrawn, and the HMGB1 content was determined using an HMGB1 ELISA Kit (IBL international) following the instructions for use. Cell counts in corresponding wells were determined using Automated Cell Counter (Bio-Rad). HMGB1 concentrations were normalized to cell counts and to the value of untreated control. The experiment was performed twice with duplicate readings.

[6] = Partition coefficient, shake-flask method; assay type: physicochemical; settings: octanol/water
Method: The “shake flask” method was used to measure the partition coefficients (P) of platinum compounds. The compounds were dissolved in octanol-saturated water (OSW) containing 200 mM NaCl. […] After careful separation of the layers with a fine-tip pipet, the Pt content in individual phases was determined by flameless atomic absorption spectrometry. The partition coefficients were calculated as the concentration ratio of the compound in the octanol layer to that in the aqueous layer, log P = log([Pt]WSO/[Pt]OSW).

HeLa cells [7] = assay: ATP secretion; assay type: cell-based, human; settings: 1× and 3× IC50, 24 h
Method: HeLa cells were seeded in 24-well plates at a density of 10^4 cells/well, grown overnight, and then treated with the tested complexes for 24 h. Aliquots of culture medium samples were withdrawn, centrifugated (500g, 3 min), and processed with ATP Bioluminescence Assay Kit CLS II, Roche. Briefly, 50 μL of cell-free medium samples were added to a 96-well flat white plate, and an equal volume of luciferase reagent was added. The luminescence was measured immediately on a plate reader (SPARK, Tecan). The blank (no ATP) was subtracted from the raw data. ATP concentrations were obtained from the standard curve and normalized to cell counts and control. The data are shown as MEAN of 4–5 independent measurements.

HeLa cells [8] = assay: Calreticulin exposure (flow cytometry); assay type: cell-based, human; settings: 3× IC50, 16–18 h, DAPI-negative cells
Method: Following the treatment, the cells were harvested (trypsin), washed with FACS buffer (PBS, BSA 1%, and FBS 2%), and incubated with Alexa Fluor 488 Anti-Calreticulin antibody for 40 min at 4 °C. The buffer was removed (CFG, 300 g, 3 min) and replaced with FACS buffer containing DAPI (1 μg mL^–1, 20 min), and the cells were analyzed with flow cytometry (BD FACS Verse) and FCS Express 6 (DeNovo Software, Glendale, CA). Calreticulin fluorescence histograms were analyzed in the DAPI-negative (intact membrane) cell population.

oral cancer xenograft = system: oral cancer xenograft; set-up: method as in PMID 33305724; settings: BALB/c nude mice; cited from earlier work
tumor cells = settings: cited from earlier work
HeLa cells [9] = assay: Mitochondrial membrane potential (TMRE, flow cytometry); assay type: cell-based, human; settings: 10× IC50, 1 h, vs untreated control
Method: Figure 4 Changes in the mitochondrial membrane potential Δψm in HeLa cells. The cells were treated with Pt compounds at the concentrations corresponding to 10× IC50 for 1 h and subsequently stained with TMRE. The fluorescence was measured by flow cytometry. Data represents mean ± SD from three independent experiments, *p < 0.01.
HeLa cells were seeded (6-well plates, 3 × 10^5 cells/well), grown overnight, and then treated with the tested compounds for 1 h. The medium was removed, and a fresh medium containing TMRE (Thermo Fisher Scientific) at a final concentration of […] in 500 μL was added. The cells were incubated for 30 min at 37 °C and then harvested using trypsin. TMRE fluorescence was measured with a fluorescence-activated cell sorting (FACS) Verse flow cytometer (Becton Dickinson), and the data were analyzed using the ModFit LT 4.1 (Verity Software House) software. The experiment was performed in triplicate.

COX in HeLa cells = assay: COX activity assay (kit) in treated cells; assay type: cell-based, human; settings: 24 h, 1× IC50,72h, vs untreated control
Method: The results are expressed relative to the COX activity of untreated control.
HeLa cells were seeded in 6-well plates at a density of 10^5 cells/well and incubated overnight. The cells were treated with the tested compounds at concentrations corresponding to 1× IC50. Following a 24 h treatment, the cells were lyzed with radioimmunoprecipitation assay (RIPA) buffer supplemented with proteinase inhibitors on ice for 10 min. The extracts were cleared with centrifugation (12,000g/5 min), and protein content was determined using Bradford assay. COX activity was determined with a COX Activity Assay Kit (Abcam). 6 μg of protein was used in the reaction. The experiment was set up according to the manufacturer’s instructions. The fluorescence (Ex/Em 535/587 nm) was read in a kinetic mode, and the COX inhibition was expressed as a percentage of the activity of the untreated control.

[10] = MTT assay in non-cancerous fibroblasts, 72 h; assay type: cell-based; settings: MRC-5 cells (non-cancerous fibroblasts), non-cancerous human fibroblasts, 72 h incubation, mean ± SD
Method: as §1, with “The absorbance was read at 570 nm (vs 620 nm) using an Absorbance Reader (SUNRISE TECAN SCHOELLER).” left out

[11] = MTT, 72 h incubation, mean ± SD

In the case of `Cc1c(C)c2cccnc2c2ncccc12.N[C@H]1CCCC[C@@H]1N.[Pt]` [complex 1, [Pt(1S,2S-diaminocyclohexane)(5,6-dimethyl-1,10-phenanthroline)]^2+], the IC50 (HCT-116; [11]) is reported as 0.08 ± 0.01 µM, the IC50 (A2780; [11]) is reported as 0.19 ± 0.04 µM and the IC50 (HeLa; MTT, 72 h incubation, mean ± SD, read-out: IC50 HeLa) is reported as 0.37 ± 0.01 µM. It also gave an IC50 (MCF-7; [11]) of 0.7 ± 0.1 µM, an IC50 (MDA-MB-231; [11]) of 0.24 ± 0.03 µM and an IC50 (A2780cisR; [11]) of 0.06 ± 0.01 µM. The “in vivo antitumor activity, peritoneal carcinomatosis” value [1] was “no antitumor activity”, the “cellular uptake 0.1 μM/24 h” value (HeLa cells [2]; 0.1 μM complex, 24 h) was 4.4 ± 0.5 ng Pt/10^6 cells and the “cellular uptake 1 μM/6 h” value (HeLa cells [2]; 1 μM complex, 6 h) was 13 ± 3 ng Pt/10^6 cells. The “cellular uptake 10 μM/6 h” value (HeLa cells [2]; 10 μM complex, 6 h) was 72 ± 2 ng Pt/10^6 cells, the “amount of Pt associated with DNA” value [3] was 2.0 ± 0.2 pg Pt/µg DNA and the “increase of tumor-cell phagocytosis” value [4] was “roughly as effective as its Pt(IV) analogues 2–4”. For the same molecule, the IC50 (MRC-5) was 0.17 ± 0.04 µM, the HMGB1 secretion (HeLa cells [5]) was “effective as well” and the “log P” value [6] was “–1.7 ± 0.2”. The ATP secretion (HeLa cells [7]) was “effective as well”, the externalization of calreticulin (HeLa cells [8]) was “effective as well” and the “in vivo anticancer effect, oral cancer xenograft” value (oral cancer xenograft) was “potent anticancer effect”.

For `O=C1[O][Pt]2([NH][C@@H]3CCCC[C@H]3[NH]2)[O]C1=O` [oxaliplatin], the tumor cell phagocytosis (tumor cells) is listed as “does not promote tumor cell phagocytosis”.

With `O=C([O-])Cc1ccccc1Nc1c(Cl)cccc1Cl.[Na+]` [DCF, sodium {2-[(2,6-dichlorophenyl)amino]phenyl}-acetate, reference compound] the “mitochondrial membrane potential Δψm (TMRE fluorescence)” value (HeLa cells [9]) was “approximately the same effect”, the IC50 (HCT-116; Homo sapiens, HCT-116, 72 h) was 211 ± 10 µM and the IC50 (A2780; Homo sapiens, A2780, 72 h) was 238 ± 19 µM. The IC50 (HeLa; Homo sapiens, HeLa, 72 h, read-out: IC50 HeLa) was 250 ± 22 µM, the IC50 (HeLa; Homo sapiens, HeLa, read-out: HeLa (biological data CSV)) was 240 ± 15 µM and the IC50 (MCF-7; Homo sapiens, MCF7, 72 h) was 259 ± 17 µM. For the same molecule, the IC50 (MDA-MB-231; Homo sapiens, MDA-MB-231, 72 h) was 187 ± 15 µM, the IC50 (A2780cisR; Homo sapiens, A2780cisR, 72 h) was 138 ± 8 µM and the “inhibition of COX activity” value (COX in HeLa cells) was “Inhibition of COX activity was also observed”. The IC50 at 72 h [10] was 445 ± 36 µM, the HMGB1 secretion (HeLa cells [5]) was “effective as well” and the ATP secretion (HeLa cells [7]) was “effective as well”. For the same molecule, the externalization of calreticulin (HeLa cells [8]) was “effective as well”.
